Reference: US20250296942A1, “Phosphonate-Based Coordination Complexes and Methods of Preparation and Use Thereof” (University of Puerto Rico, priority 2021, published 2025)

Assays:
[1] = tested on: human breast cancer MDA-MB-231 cell line; assay: AlamarBlue cytotoxicity, BPBPA series, MDA-MB-231; assay type: cell-based; conditions: for IC50: Homo sapiens
Protocol: Cell culture methods. MCF-7, MDA-MB-231, and hFOB 1.19 cell lines were incubated employing DMEM (37° C.) and DMEM: F12 (34° C.) medium, respectively, in a 5% CO2. Cell lines were supplemented using 10% FBS and 1% Pen-Strep and medium exchange was performed twice a week. Cell passages were carried out at 80% confluency.
Cell-based assays. Cell lines were seeded in 96 well plates at a density of 5×10^3 cells/mL, cells were incubated for 24 h before treatment. Both cell lines were treated with 100 μL of BPBPA (0-400 μM), LET (0-200 μM), unloaded and loaded nano-Ca@BPBPA (0-50 μM). All cell-based assays were performed for 24, 48, and 72 h of treatment. Control groups were treated with media (DMEM or DMEM: F12) supplemented with 1% Pen-Strep. Then, the media was removed and replaced with 100 μL of 10% AlamarBlue® solution. The 96 well plates were incubated for 4 h before measurements. Then, the fluorescence was assessed at 560 nm of excitation and λmax 590 nm of emission. The cell viability (%) was evaluated by contrasting the percentage of live cells of the control groups with the cells treated with BPBPA, LET, unloaded and loaded nano-Ca@BPBPA. The half-maximal inhibitory concentration (IC50) was determined for BPBPA and letrozole employing the dose-response curves (% cell live vs. concentration). The relative cell live (% RCL) was assessed for the unloaded and loaded nano-Ca@BPBPA, utilizing LET as a control group. The IC50 and % RCL were plotted using the GraphPad Prism software vs. 9.3.0.
The cytotoxicity of BPBPA (control), LET (control), nano-Ca@BPBPA (control), and drug-loaded nano-Ca@BPBPA (experimental) was investigated employing the human breast cancer, MCF-7 and MDA-MB-231, and the human osteoblast, hFOB 1.19, cell lines. The human MCF-7 cell line represents an ER-positive breast cancer model with estrogen, progesterone, and glucocorticoid receptors.^1 While, the human MDA-MB-231 cells correspond to a model of ER-negative breast cancer. Both selected cancer cell lines can be implicated in the development and progress of bone metastases in patients.^40,41 The human fetal hFOB 1.19 cells represent a homogeneous osteoblast-like (non-cancerous) model commonly employed to assess osteoblast differentiation.^42 The cytotoxicity of these materials was evaluated by determining the IC50 and % RCL. […] Similar results were found for MDA-MB-231 and hFOB 1.19 cell lines treated with LET (IC50 >200 μM) at the same time points (Supporting Information).
Cell culture methods. MCF-7 and MDA-MB-231 were incubated employing DMEM media at 37° C. in 5% CO2. The hFOB 1.19 cell lines were incubated using DMEM: F12 at 34° C. in 5% CO2. Cell lines were supplemented using 10% FBS and 1% Pen-Strep. The media was exchanged twice per week. Cell passages were carried out at 80% confluency.
Seeding. Cell lines were seeded in 96 well plates at a density of […] cells/mL; cells were incubated for 24 h before each treatment.
Treatment. Cell lines were treated with 100 μL of BPBPA (0-400 μM), LET (0-200 μM), unloaded and loaded nano-Ca@BPBPA (0.5-50 μM). Control groups were treated with media (DMEM or DMEM: F12) supplemented with 1% Pen-Strep. All cell-based assays were performed after 24, 48, and 72 h of treatment and in triplicate.
AlamarBlue@assay. To determine the cell viability, the media was removed and replaced with 100 μL of 10% AlamarBlue® solution. The 96 well plates were incubated for 4 h before measurements. Then, the fluorescence was assessed at 560 nm of excitation and λmax 590 nm of emission.

[2] = Release of letrozole from drug-loaded 2,2′-BPBPA-Ca in FaSSGF; assay type: physicochemical; conditions: 37° C., 150 rpm, duplicate
Protocol: LET release curve from 2,2′-BPBPA-Ca. The release curve of LET from 2,2′-BPBPA-Ca was assessed in FaSSGF. A calibration curve for LET in FaSSGF was previously prepared; the lambda max (λmax) was detected at 238 nm (Supporting Information). About 100 mL of FaSSGF were placed in a 250-mL beaker and left in constant stirring at 37° C. (150 rpm).
(§1) Subsequently, […] of powdered drug-loaded 2,2′-BPBPA-Ca (experimental) were placed into the FaSSGF solution. After each time point (0, 1, 3, 6, 24, 48, and 72 h), an aliquot (1 mL) was taken out and diluted in a 5 mL volumetric flask. An aliquot was taken out before adding the drug-loaded material to record the first time point (0 h). Then, the absorbance was measured at 238 nm to determine the amount (%) of LET release from the 2,2′-BPBPA-Ca.
TGA thermographs for these drug-loaded materials were collected to determine the amount of LET loaded into the channels of 2,2′-BPBPA and nano-Ca@2,2′-BPBPA (20-21%, FIG. 8B). Furthermore, the release capacity of these drug-loaded BPCCs was assessed in physiological conditions (FaSSGF, pH=1.60) at 37° C. The LET release from 2,2′-BPBPA-Ca was determined by measuring the absorption of the supernatant at the lambda max (λmax=[…]) and quantifying the increase in the LET concentration over time.
as §1, with “Release experiment. […] About 100 mL of FaSSGF were placed in a 250-mL beaker and left in constant stirring at 37° C. (150 rpm). Subsequently,” for “Subsequently,”, “2,2′-BPBPA-Ca. The release curve of LET (control) in FaSSGF was used for comparison.” for “2,2′-BPBPA-Ca.”

Percentage (%) of letrozole (LET) released, Mean ([2]; 1 h): 65%
Percentage (%) of letrozole (LET) released, Mean ([2]; 3 h): 72%
Percentage (%) of letrozole (LET) released, Mean ([2]; 6 h): 75%
Percentage (%) of letrozole (LET) released, Mean ([2]; 24 h): 93%
Percentage (%) of letrozole (LET) released, Mean ([2]; 48 h): 94%
Percentage (%) of letrozole (LET) released, Mean ([2]; 72 h): 94%
Compound: N#Cc1ccc(C(c2ccc(C#N)cc2)n2cncn2)cc1 [LET, letrozole]
% RCL ([1]; 12.5 μM, 72 h): 99±1%
% RCL ([1]; 50 μM, 24 h): ~86%
% RCL ([1]; 50 μM, 48 h): ~83%
% RCL ([1]; 50 μM, 72 h): ~82%
IC50 ([1]; 24 h): > 200 µM
IC50 ([1]; 48 h): > 200 µM
IC50 ([1]; 72 h): > 200 µM
